Test: xn = mol fraction of the nth substance listed
Settings: for electrical conductivity: 101 kPa; for viscosity: 101.3 kPa

CCCCCCCCCCCC[N+](C)(C)Cc1ccccc1.[Cl-] + NCC(=O)O + O
electrical conductivity [S/m]
Settings	293.15 K	298.15 K	303.15 K	308.15 K
x2 = 0.0008873, x1 = 0.0002851	0.0824	0.0924	0.103	0.116
x2 = 0.0008873, x1 = 0.0003053	0.0856	0.0961	0.107	0.12
x2 = 0.0008873, x1 = 0.0003201	0.0879	0.0988	0.11	0.124
x2 = 0.0008874, x1 = 0.0001939	0.0676	0.0753	0.0835	0.0926
x2 = 0.0008874, x1 = 0.0002197	0.072	0.0803	0.0893	0.0992
x2 = 0.0008874, x1 = 0.0002434	0.0759	0.0848	0.0944	0.105
x2 = 0.0008874, x1 = 0.0002654	0.0793	0.0888	0.099	0.11
x2 = 0.0008875, x1 = 5.836e-05	0.0233	0.0261	0.0289	0.0319
x2 = 0.0008875, x1 = 8.059e-05	0.0317	0.0355	0.0393	0.0433
x2 = 0.0008875, x1 = 0.0001014	0.0394	0.0441	0.0489	0.0538
x2 = 0.0008875, x1 = 0.0001212	0.0469	0.0524	0.0581	0.0639
x2 = 0.0008875, x1 = 0.0001444	0.0552	0.0617	0.0682	0.0751
x2 = 0.0008875, x1 = 0.0001686	0.0624	0.0695	0.077	0.085
x2 = 0.001759, x1 = 5.744e-05	0.0233	0.026	0.0289	0.0319
x2 = 0.001759, x1 = 7.9e-05	0.0314	0.0351	0.039	0.0429
x2 = 0.001759, x1 = 9.947e-05	0.0391	0.0437	0.0485	0.0534
x2 = 0.001759, x1 = 0.0001207	0.0469	0.0525	0.0582	0.064
x2 = 0.001759, x1 = 0.0001453	0.0558	0.0624	0.069	0.0758
x2 = 0.001759, x1 = 0.0001712	0.0628	0.0701	0.0775	0.0856
x2 = 0.001759, x1 = 0.0001971	0.0678	0.0758	0.0841	0.0931
x2 = 0.001759, x1 = 0.0002216	0.072	0.0806	0.0896	0.0995
x2 = 0.001759, x1 = 0.0002442	0.0758	0.0849	0.0946	0.105
x2 = 0.001759, x1 = 0.000265	0.079	0.0888	0.099	–
x2 = 0.001759, x1 = 0.000284	0.0821	0.0923	0.103	–
x2 = 0.001759, x1 = 0.0003018	0.0849	0.0956	0.107	–
x2 = 0.001759, x1 = 0.0003141	0.087	0.098	0.11	–

CCCC[N+](CCCC)(CCCC)CCCC.[Cl-] + NCCCO
viscosity [mPa·s]
Settings	293.15 K	298.15 K	303.15 K	308.15 K	313.15 K	318.15 K	323.15 K	328.15 K	333.15 K
x2 = 0.8	101.4	77.4	57.8	44.6	36.2	28.9	23.4	19.4	16.1
x2 = 0.8571	70.7	53.9	41.7	32.8	26	21.1	17.3	14.2	12
x2 = 0.8889	60.2	46.1	35.7	28	22.5	18.3	15	12.5	10.7

— the CheMixHub ionic liquid set
